Consider 37 compounds from US20110306606A1, “NOVEL 2,6-SUBSTITUTED-3-NITROPYRIDINE DERIVATIVE, METHOD FOR PREPARING SAME, AND PHARMACEUTICAL COMPOSITION INCLUDING SAME” (priority 2008, published 2011).

Molecules are shown by their SMILES.

The subject of the series is Osteoblasts (Calvarial cells). In words: Cytotoxicity test (MTT). The settings on record: 1 μM compound, 72 hours, in comparison with vehicle control.
Turning to `Cc1ccc(Nc2nc(N(C)CC3OCCO3)ccc2[N+](=O)[O-])cc1` [Compound 4, 2-(4-methylphenylamino)-6-[(N-[1,3]-dioxolan-2-ylmethyl)methylamino]-3-nitropyridine], the “Cell viability (%) Calvarial cell” value stood at 104%.

For the compound `Cc1ccc(Nc2nc(NCc3ccncc3)ccc2[N+](=O)[O-])cc1` [Compound 8], the “Cell viability (%) Calvarial cell” value worked out at 92%. The value for `COc1ccc(Nc2nc(N(C)CCO)ccc2[N+](=O)[O-])cc1` [Compound 24, 2-(4-methoxyphenylamino)-6-[(N-methyl-2-hydroxy)ethylamino]-3-nitropyridine] was 99%. On to `CN(CC1OCCO1)c1ccc([N+](=O)[O-])c(Nc2ccc(C(C)(C)C)cc2)n1` [Compound 33, 2-[4-(t-butyl)phenylamino]-6-[(N-[1,3]-dioxolan-2-ylmethyl)methylamino]-3-nitropyridine], for which the “Cell viability (%) Calvarial cell” value came out at 93%. With `CC1=NCCN1c1ccc([N+](=O)[O-])c(Nc2ccc(C#N)cc2)n1` [Compound 48, 2-(4-cyanophenylamino)-6-[(2-methyl-4,5-dihydro)imidazol-1-yl]-3-nitropyridine], the “Cell viability (%) Calvarial cell” value turned out to be 103%. The same measure for `Nc1ccc(Nc2nc(NCCN3CCOCC3)ccc2[N+](=O)[O-])cc1` [Compound 68, 2-[4-(amino)phenylamino]-6-[2-(morpholin-1-yl)ethylamino]-3-nitropyridine]: 103%; for `Nc1ccc(Nc2nc(NCCCN3CCOCC3)ccc2[N+](=O)[O-])cc1` [Compound 69, 2-[4-(amino)phenylamino]-6-[3-(morpholin-1-yl)propylamino]-3-nitropyridine]: 110%. The same measure for `Nc1cccc(Nc2nc(NCCN3CCOCC3)ccc2[N+](=O)[O-])c1` [Compound 83, 2-[3-(amino)phenylamino]-6-[2-(morpholin-1-yl)ethylamino]-3-nitropyridine]: 99%; for `Nc1cccc(Nc2nc(NCCCN3CCOCC3)ccc2[N+](=O)[O-])c1` [Compound 84, 2-[3-(amino)phenylamino]-6-[3-(morpholin-1-yl)propylamino]-3-nitropyridine]: 108%.

For the compound `CN(CC1OCCO1)c1ccc([N+](=O)[O-])c(Nc2ccc(N3CCOCC3)cc2)n1` [Compound 111, 2-(4-morpholinophenylamino)-6-[(N-[1,3]-dioxolan-2-ylmethyl)methylamino]-3-nitropyridine], the “Cell viability (%) Calvarial cell” value came out at 95%. The value for `CN(CC1OCCO1)c1ccc([N+](=O)[O-])c(Nc2ccc(F)c(F)c2)n1` [Compound 127, 2-[(3,4-difluoro)phenylamino]-6-[(N-[1,3]-dioxolan-2-ylmethyl)-methylamino]-3-nitropyridine] was 99%; that for `CCN(CCO)c1ccc([N+](=O)[O-])c(Nc2ccc(-c3csc(C4CCCCC4)n3)cc2)n1` [Compound 156, 2-[4-(2-cyclohexylthiazol-4-yl)phenylamino]-6-[(N-ethyl-2-hydroxyethyl)amino]-3-nitropyridine] was 108%. The same measure for `CN1CCN(c2ccc([N+](=O)[O-])c(Nc3ccc(-c4csc(C5CCCCC5)n4)cc3)n2)CC1` [Compound 159]: 100%.

For the compound `CCN(CC)c1ccc(Nc2nc(NC)ccc2[N+](=O)[O-])cc1F` [Compound 175, 2-[(3-fluoro-4-diethylamino)phenylamino]-6-(methylamino)-3-nitropyridine], the “Cell viability (%) Calvarial cell” value is 104%. The same measure for `CCN(CC)c1ccc(Nc2nc(NC(C)C)ccc2[N+](=O)[O-])cc1F` [Compound 176, 2-[(3-fluoro-4-diethylamino)phenylamino]-6-(isopropylamino)-3-nitropyridine]: 109%; for `CCN(CC)c1ccc(Nc2nc(NC(C)(C)C)ccc2[N+](=O)[O-])cc1F` [Compound 178, 2-[(3-fluoro-4-diethylamino)phenylamino]-6-(t-butylamino)-3-nitropyridine]: 109%. Regarding `CCN(CC)c1ccc(Nc2nc(N3CCC(O)CC3)ccc2[N+](=O)[O-])cc1F` [Compound 179, 2-[(3-fluoro-4-diethylamino)phenylamino]-6-(4-hydroxypiperidino)-3-nitropyridine], the “Cell viability (%) Calvarial cell” value is on record as 104%. The same measure for `CCN(CC)c1ccc(Nc2nc(-n3ccnc3C(C)C)ccc2[N+](=O)[O-])cc1F` [Compound 180, 2-[(3-fluoro-4-diethylamino)phenylamino]-6-[(2-isopropyl)imidazol-1-yl]-3-nitropyridine]: 100%; for `CCN(CC)c1ccc(Nc2nc(N3CCN=C3C)ccc2[N+](=O)[O-])cc1F` [Compound 181, 2-[(3-fluoro-4-diethylamino)phenylamino]-6-[(2-methyl-4,5-dihydro)imidazol-1-yl]-3-nitropyridine]: 106%. The value for `CCN(CC)c1ccc(Nc2nc(N3CCNCC3)ccc2[N+](=O)[O-])cc1F` [Compound 182, 2-[(3-fluoro-4-diethylamino)phenylamino]-6-(piperazin-1-yl)-3-nitropyridine] was 101%; that for `CCN(CC)c1ccc(Nc2nc(N3CCN(C)CC3)ccc2[N+](=O)[O-])cc1F` [Compound 183, 2-[(3-fluoro-4-diethylamino)phenylamino]-6-(4-methylpiperazin-1-yl)-3-nitropyridine] was 113%; that for `CCN(CC)c1ccc(Nc2nc(N3CCOCC3)ccc2[N+](=O)[O-])cc1F` [Compound 184, 2-[(3-fluoro-4-diethylamino)phenylamino]-6-morpholino-3-nitropyridine] was 110%. The same measure for `CCN(CC)c1ccc(Nc2nc(NCc3cccnc3)ccc2[N+](=O)[O-])cc1F` [Compound 185, 2-[(3-fluoro-4-diethylamino)phenylamino]-6-[(3-pyridyl)methylamino]-3-nitropyridine]: 111%; for `CCN(CC)c1ccc(Nc2nc(NCc3ccncc3)ccc2[N+](=O)[O-])cc1F` [Compound 186, 2-[(3-fluoro-4-diethylamino)phenylamino]-6-[(4-pyridyl)methylamino]-3-nitropyridine]: 113%. In the case of `CCN(CC)c1ccc(Nc2nc(N3CCC(N)CC3)ccc2[N+](=O)[O-])cc1F` [Compound 187, 2-[(3-fluoro-4-diethylamino)phenylamino]-6-(4-aminopiperidino)-3-nitropyridine], the “Cell viability (%) Calvarial cell” value is 102%. The same measure for `CCN(CC)c1ccc(Nc2nc(NCCN3CCOCC3)ccc2[N+](=O)[O-])cc1F` [Compound 188, 2-[(3-fluoro-4-diethylamino)phenylamino]-6-[2-(morpholin-1-yl)ethylamino]-3-nitropyridine]: 111%. The value for `CCN(CC)c1ccc(Nc2nc(NCCCn3ccnc3)ccc2[N+](=O)[O-])cc1F` [Compound 189, 2-[(3-fluoro-4-diethylamino)phenylamino]-6-[(3-imidazol-1-yl)propylamino]-3-nitropyridine] was 129%; that for `CCN(CC)c1ccc(Nc2nc(NCCCN3CCOCC3)ccc2[N+](=O)[O-])cc1F` [Compound 190, 2-[(3-fluoro-4-diethylamino)phenylamino]-6-[(3-morpholin-1-yl)propylamino]-3-nitropyridine] was 123%. Consider `O=[N+]([O-])c1ccc(N2CCC(O)CC2)nc1Nc1ccc(N2CCOCC2)c(F)c1` [Compound 194, 2-[(3-fluoro-4-morpholino)phenylamino]-6-(4-hydroxypiperidino)-3-nitropyridine], for which the “Cell viability (%) Calvarial cell” value turned out to be 107%. As for `CC1=NCCN1c1ccc([N+](=O)[O-])c(Nc2ccc(N3CCOCC3)c(F)c2)n1` [Compound 195, 2-[(3-fluoro-4-morpholino)phenylamino]-6-[(2-methyl-4,5-dihydro)imidazol-1-yl]-3-nitropyridine], the “Cell viability (%) Calvarial cell” value is given as 104%. Turning to `CC(C)c1nccn1-c1ccc([N+](=O)[O-])c(Nc2ccc(N3CCOCC3)c(F)c2)n1` [Compound 196, 2-[(3-fluoro-4-morpholino)phenylamino]-6-[(2-isopropyl)imidazol-1-yl]-3-nitropyridine], the “Cell viability (%) Calvarial cell” value is 100%. The value for `CN1CCN(c2ccc([N+](=O)[O-])c(Nc3ccc(N4CCOCC4)c(F)c3)n2)CC1` [Compound 200, 2-[(3-fluoro-4-morpholino)phenylamino]-6-(4-methylpiperazin-1-yl)-3-nitropyridine] was 107%; that for `CC(C)Nc1ccc([N+](=O)[O-])c(Nc2ccc(N3CCSCC3)c(F)c2)n1` [Compound 204, 2-[(3-fluoro-4-thiomorpholino)phenylamino]-6-(isopropylamino)-3-nitropyridine] was 102%; that for `CC1=NCCN1c1ccc([N+](=O)[O-])c(Nc2ccc(N3CCSCC3)c(F)c2)n1` [Compound 207, 2-[(3-fluoro-4-thiomorpholino)phenylamino]-6-[(2-methyl-4,5-dihydro)imidazol-1-yl]-3-nitropyridine] was 102%.

Regarding `CC(C)c1nccn1-c1ccc([N+](=O)[O-])c(Nc2ccc(N3CCSCC3)c(F)c2)n1` [Compound 208, 2-[(3-fluoro-4-thiomorpholino)phenylamino]-6-[(2-isopropyl)imidazol-1-yl]-3-nitropyridine], the “Cell viability (%) Calvarial cell” value was 101%.

Regarding `CC(C)(C)Nc1ccc([N+](=O)[O-])c(Nc2ccc(N3CCSCC3)c(F)c2)n1` [Compound 211, 2-[(3-fluoro-4-thiomorpholino)phenylamino]-6-(t-butylamino)-3-nitropyridine], the “Cell viability (%) Calvarial cell” value was 110%. The same measure for `O=[N+]([O-])c1ccc(N2CCC(O)CC2)nc1Nc1ccc(N2CCNCC2)c(F)c1` [Compound 218, 2-[(3-fluoro-4-piperazino)phenylamino]-6-(4-hydroxypiperidino)-3-nitropyridine]: 96%.
